According to PubChem BioAssay AID1902 (Broad Institute, 2009):
The source made the active and inactive calls.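 How the source made its calls: active means EC50 no more than a set limit of log units above the highest dose; inactive means the rest.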

Target: S. pyogenes SKKanGAS, kanamycin survival, BacTiterGlo, 6 h
Test: S. pyogenes SKKanGAS kanamycin growth inhibitors – SKKanGAS strain, luminescence, dose confirmation, streptokinase promoter inhibitor project, dose response (AID 1902);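 further: lower survival reflects blocked streptokinase promoter driving kanamycin resistance gene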

Compound | EC50
O=C(c1cnn2c(C(F)(F)F)cc(-c3ccc(F)cc3)nc12)N1CCc2ccccc2C1 | 12.1 µM
CN1CCN(C2Cc3ccc(Cl)cc3Sc3ccc(F)cc32)CC1 (configuration not stated) | 6.47 µM
CN1CCN(C(c2ccc(C(F)(F)F)cc2)c2ccc3cccnc3c2O)CC1 (configuration not stated) | 3.02 µM
Cc1cc(C(F)(F)F)c(C#N)c(SCC(=O)Nc2nc3cc(Br)ccc3s2)n1 | 5.7 µM
OC1(C#Cc2c(-c3ccsc3)oc3ccc(N4CCOCC4)cc23)CCCCC1 | 3.59 µM
CCOc1ccc(/C=C2/Sc3ccc(C(=O)N4CCN(C(=O)c5ccco5)CC4)cc3N(C)C2=O)cc1OC | 4.19 µM
Cn1nc(-c2ccccc2)c(CSc2cccc(Cl)c2)c1Cl | 1.08 µM
CN(C)CCCNc1cc(C(C)(C)C)nc2c(-c3ccc(Cl)cc3)cnn12 | 1.94 µM
CC(C)C[C@H](NC(=O)c1nc[nH]c1C(=O)NCc1ccccc1)C(=O)OCc1ccccc1 | 5.01 µM
CC1CCN(c2nc(CN3CCCCC3)nc3scc(-c4ccccc4)c23)CC1 | 3.02 µM
Oc1ccc(-c2c(C3=CCCCC3)sc3ccccc23)cc1 | 4.97 µM
Cc1ncc(CO)c(/C=N/NC(=S)Nc2ccc(Cl)c(Cl)c2)c1O | 5.9 µM
C/C(=N\NC(=O)c1ccccc1N)c1ccc(NC(=O)Cc2ccccc2)cc1 | 4.95 µM
COc1ccccc1Sc1nc(-c2ccccn2)ncc1OC | 14.7 µM
O=C(Cc1csc(NC(=O)Nc2cccc(Cl)c2)n1)NCc1cccnc1 | 4.4 µM
CCc1ccc2[nH]c(=O)c(C3C(C#N)=C(N)Oc4c3ccc3cccnc43)cc2c1 (configuration not stated) | 1.63 µM
CSc1ccc(/C=C/c2ccc3cccc(O)c3n2)cc1 | 1.97 µM
CCc1nnc(NC(=O)c2ccc(S(=O)(=O)N(C)c3ccccc3)cc2)o1 | 4.71 µM
CCC(CC)c1nn2c(N)c(/C=C3\C(C)=Nc4ccccc43)c(=O)nc2s1 | 2.57 µM
COc1ccc2nc(Nc3nc(C)c(C(C)=O)s3)sc2c1 | 6.64 µM
O=c1c2ccccc2c(C=Nc2ccc(O)cc2)c(O)n1Cc1ccccc1 | 6.21 µM
COC(=O)c1cc(-c2ccc(OC)cc2F)nc2nc(SC)[nH]c(=O)c12 | 2.57 µM
O=C(COc1ccc(Cl)cc1)Nc1nnc(-c2ccc3c(c2)CCCC3)o1 | 0.369 µM
Cc1cc(C)n(-c2nc(Nc3ccccc3C(F)(F)F)nc(-n3nc(C)cc3C)n2)n1 | 2.67 µM
Cc1cccc(C)c1NC(=O)CN(C)CC(=O)Nc1sc2c(c1C(N)=O)CCC2 | > 15 µM (inactive)
O=C(Nc1cccc(Cl)c1)Nc1csc([N+](=O)[O-])c1 | 8.11 µM

Compound | EC50
c1ccc(OCc2nc3c4c(ncn3n2)-c2ccccc2CC42CCCC2)cc1 | 11.7 µM
CN1CCN(c2cc3c(cc2F)c(=O)c(C(=O)O)cn3CCF)CC1 | 4.37 µM
C[C@H]1[C@H](C)CC[C@]2(C(=O)O)CC[C@]3(C)C(=CC[C@@H]4[C@@]5(C)CC[C@H](O)C(C)(C)[C@@H]5CC[C@]43C)[C@H]12 | 1.79 µM
COc1cccc(C2C3=C(N=c4s/c(=C\c5cccc(O)c5)c(=O)n42)c2ccccc2CC3)c1OC (configuration not stated) | 5.37 µM
Oc1nc(Nc2ccccc2)sc1/C=C1\C=Nc2ccccc21 | 9.16 µM
CCSc1nnc(NC(=O)c2ccccn2)s1 | 4 µM
COc1ccc(C2CC(c3cccs3)=NN2C(=O)CSc2nc3c(cnn3-c3ccccc3)c(=O)[nH]2)cc1 (configuration not stated) | 2.11 µM
Cc1ccc(OCCn2c(NC(=O)c3ccco3)nc3ccccc32)cc1 | 3.58 µM
CCOC(=O)c1cccc(N2C(N)=NC(N)=NC2(C)C)c1 | 0.109 µM
O=C(/C=C/c1ccccc1)NC(=S)NNC(=O)c1ccco1 | 2.76 µM
COc1ccc(C(=O)Nc2cccc(/C=C(\CCC(=O)O)c3nc4ccccc4s3)c2)cc1 | 8.09 µM
CCOC(=O)c1sc(NC(=O)Nc2cccc(Cl)c2)cc1C | 2.39 µM
CCc1ccc(NC2=NCC(c3ccccc3)S2)cc1 (configuration not stated) | 6.4 µM
Cc1[nH]c2ccccc2c1C(c1ccccn1)c1c(C)[nH]c2ccccc12 | 8.63 µM
O=C(c1ccc(F)cc1)c1cc2ccc(O)cc2oc1=O | 7.31 µM
COc1ccccc1N1CCN(Cc2nc(N)nc(Nc3ccc(C)c(Cl)c3)n2)CC1 | 7.99 µM
COc1ccc(C2CC(c3cccs3)=NN2C(=O)c2ccc(Br)o2)cc1 (configuration not stated) | 5.63 µM
COc1ccc(-c2cc3nc4n(c(=O)c3s2)CCC4)cc1 | 0.734 µM
O=C(N/N=C/c1cc(Br)ccc1O)C(=O)Nc1ccccc1OC(F)(F)C(F)F | 1.44 µM
CC(C)(C)c1cc[n+](C2=C([O-])c3ccccc3C(=O)/C2=N\S(=O)(=O)c2cccs2)cc1 | 2.02 µM
Cc1cc(C)c2sc(NNC(=O)c3ccc(S(=O)(=O)N4CCc5ccccc5C4)cc3)nc2c1 | 1.06 µM
CN(C)c1ccc(C2C=C(c3ccc(Cl)cc3OC(F)F)Nc3ncnn32)cc1 (configuration not stated) | 10.8 µM
CCc1c(C2(O)CCCCC2)[nH]c2c(C(=O)OC)cc(Cl)cc12 | 4.12 µM
O=[N+]([O-])c1ccc(O)c(Nc2ncnc3ccc(Br)cc23)c1 | 3.32 µM
O=C(O)c1ccc(N2CCCCS2(=O)=O)cc1 | > 15 µM (inactive)
CC(C)=CCc1cc([C@@H]2COc3c(ccc4c3C=CC(C)(C)O4)C2)c(O)cc1O | 2.94 µM

Compound | EC50
S=c1nc2ccccc2c2nc(-c3ccccc3)[nH]n12 | 5.36 µM
Cc1nn(-c2ccccc2)c(Cl)c1/C=N/NC(=O)c1ccc(NS(=O)(=O)c2cccs2)cc1 | 2.34 µM
O=C(CSc1nnc(CNC(=O)c2ccccc2)o1)NCc1ccccc1 | > 15 µM (inactive)
COc1ccc(C(=O)/C=C/c2ccc(-c3ccccc3)cc2)cc1CSCC(=O)O | 5.51 µM
Cc1csc2c(N3CCN(C(=O)Nc4ccc(Cl)c(Cl)c4)CC3)ncnc12 | 2.99 µM
Cc1c(C(=O)Nc2ccc3c(c2)OCCO3)sc2nc(-c3ccccc3)cn12 | 2.52 µM
Oc1cccc(NC(=S)N=Nc2c(O)[nH]c3ccc(Br)cc23)c1 | 2.33 µM
CC(=O)Nc1ccc(C2C(=O)c3ccccc3C2=O)cc1 | > 15 µM (inactive)
O=C(Nc1nnc(-c2ccccc2)o1)c1ccc(Cl)cc1 | 0.254 µM
O=C1c2ccc3c4c(ccc(c24)C(=O)N1c1cccc(O)c1)C(=O)N(c1cccc(O)c1)C3=O | 1.27 µM
CCOC(=O)C1=C(C)n2c(s/c(=C/c3cccc([N+](=O)[O-])c3)c2=O)=NC1c1ccc(O)c(OC)c1 (configuration not stated) | 10.5 µM
Cc1ccc(C)c(NC(=S)N/N=C2/CCCCc3ccccc32)c1 | 0.643 µM
CCC(O)(CC)C(=O)N/N=C/c1cc(Br)cc(Br)c1O | 2.64 µM
CCCCn1c(O)c(C(C)=Nc2ccc(OCC)cc2)c(=O)[nH]c1=O | 9.75 µM
c1ccc(-c2onc(-c3ccco3)c2-c2ccc3[nH]ccc3c2)cc1 | 4.2 µM
C=CCn1c(O)c(N=NC(=S)Nc2ccccc2F)c2ccccc21 | 0.572 µM
O=C(c1cc(-c2ccccc2)n[nH]1)N1CCc2c([nH]c3ccccc23)C1c1ccccn1 (configuration not stated) | 5.23 µM
O=c1c2ccccc2sn1-c1cc(S(=O)(=O)N2CCOCC2)ccc1N1CCOCC1 | 13.3 µM
Cc1ccc(NNC(=O)C2CCC2)cc1C | > 15 µM (inactive)
CCCCC(=O)NC(c1ccc(Cl)cc1Cl)c1ccc2cccnc2c1O (configuration not stated) | 1.97 µM
Cc1c(N/N=C(\C#N)C(=O)c2ccccc2)c(=O)n(-c2ccccc2)n1C | 1.44 µM
COCCCn1c(=O)/c(=C\c2ccccc2OC(C)C)s/c1=C(/C#N)C(=O)Nc1ccc(C(=O)O)cc1 | 2.02 µM
COc1ccc(Oc2nc(-c3ccccn3)ncc2OC)cc1 | 1.45 µM
S=c1[nH]nc(C2CCCCC2)n1/N=C/c1cccc(Cl)c1Cl | 5.59 µM
N#CCC(=O)Nc1ccc(C(=O)OC(C(=O)Nc2cc(C(F)(F)F)ccc2Cl)c2ccccc2)cc1 (configuration not stated) | 3.64 µM
